From PMC7031697, “Mechanism of Activation of AMPK by Cordycepin” (Cell Chemical Biology, 2020)

What was measured:
[1] = tested on: wild-type (WT) U2OS cells; assay: Clonal survival assay, wild-type U2OS; format: cell-based; details: Homo sapiens, 8 h incubation, read-out: half-maximal effect on clonal survival
Experimental: Cells were seeded into 6-well plates at equal density and treated in triplicate at 40% to 60% confluence with vehicle or cordycepin for the indicated time. Cells were trypsinized in 1 ml trypsin:EDTA for 5 min and diluted in 1 ml of complete medium. Cells in control wells were counted using a hemocytometer and 1000 cells from vehicle and cordycepin-treated wells were seeded in triplicate into 10 cm dishes containing 10 ml of medium. The dishes were incubated at 37°C for 10-15 days. On the last day, the medium was decanted, cells fixed with ice-cold methanol for 10 min and stained with 10% v/v Giemsa stain in water for 15 min. The dishes were washed with water and the number of colonies counted manually.

HepG2 cells [2] = assay: Measurement of cordycepin in cell medium of HepG2 cells (LC-MS); format: in vitro ADME, human; details: 100 μM added
Experimental: (§1) The same LC-MS system was used to detect and quantify cordycepin. LC conditions were optimized using a TSKgel Amine-80 Column (100 × 1 mm, ID 5 μm, Part No.0020010, TOSOH Bioscience). Mobile phase buffer A consisted of 0.1% (v/v) formic acid and buffer B was in 80% (v/v) acetonitrile. The column was maintained at 40°C and was equilibrated with 98% buffer B for 5 min at a constant flow rate of 0.05 mL/min. Samples were diluted 1/1500 and aliquots of 4 μL of each sample loaded onto the column. Cordycepin was eluted by decreasing buffer B from 98% to 85% within 2 min and then to 10% within 5 min. Eluents were sprayed into the TSQ Quantiva which was run in positive mode with a spray voltage of 2700, sheath gas 40, aux gas 20, sweep gas 2. Levels of cordycepin were measured using multiple reaction monitoring mode (MRM) with optimized collision energies and radio frequencies previously determined by infusing pure compound. One transition (252 > 136) was used to detect and monitor cordycepin.

[3] = as above; format: in vitro ADME, human; details: human, 100 μM added
Experimental: as §1

HepG2 cells [4] = assay: Cellular oxygen consumption (Seahorse XF24); format: cell-based, human
Experimental: Cellular oxygen consumption rate (OCR) was measured using a Seahorse XF24 Extracellular Flux Analyser with 50,000 cells per well, as described previously ([Hawley et al., 2010]). HepG2 cells were cultured overnight in 24 well plates (50,000 cells/well) in standard medium as above. One hour before the experiment, the medium was replaced with 675 μl of unbuffered medium, pH 7.4: 8.3 g/L DMEM base (Sigma), 2 mM GlutaMax-1, 5 mM glucose, 32 mM NaCl, and 40 μM Phenol Red. Compounds (75 μl) were injected into wells as specified, and OCR continuously measured as described by the manufacturers of the Analyser ([Wu et al., 2007]).

HepG2 cells [5] = assay: Cellular content of adenine and cordycepin nucleotides by LC-MS; format: cell-based, human; details: 1 h
Experimental: After treatment, cells for nucleotide analysis were lysed in 70% perchloric acid and the acid extracted as described previously ([Hawley et al., 2010]). The levels of AMP, ADP, ATP, CoMP, CoDP and CoTP were measured using a TSQ Quantiva (with an ion Max NG source) interfaced with an Ultimate 3000 Liquid Chromatography system (ThermoScientific). Separation of all compounds was achieved using a porous graphitic carbon column (HyperCarb 30x1 mm ID […]; Part No: C-35003-031030, Thermo-Scientific) as described previously ([Ross et al., 2017]) with some modifications. Mobile phase buffer A consisted of 0.3% (v/v) formic acid adjusted to pH 9 with ammonia prior to a 1:10 dilution. Mobile phase buffer B was 80% (v/v) acetonitrile. The column was maintained at a controlled temperature of 40°C and equilibrated with 10% buffer B for 5 min at a constant flow rate of 0.05 mL/min. Aliquots of 1μL of each sample were loaded onto the column and compounds eluted with a linear gradient from 10% buffer B to 12% buffer B within 1 min, then 12% B to 100% B within 2 min; the column was then washed for 4 min with 100% Buffer B. Eluents were sprayed into the TSQ Quantiva using Ion Max NG ion source with ion transfer tube temperature at 350°C and vaporizer temperature 30°C. The TSQ Quantiva was run in negative mode with a spray voltage of 3500, sheath gas 40, aux gas 20 and sweep gas 2. Levels of ATP, ADP and AMP were measured using multiple reactions monitoring mode (MRM) with transitions described previously ([Ross et al., 2017]). For CoMP, CoDP and CoTP, optimised collision energies and radio frequencies were determined by infusing the pure compounds. Two transitions were used to monitor each of the three compounds, CoMP (330.22>134.01, 330.22>195.11), CoDP (410>256.67, 410>392.0) and CoTP (490>158.89, 490.11>472.11).

[6] = biological target: T1, AMPK complexes containing WT γ2 (Homo sapiens, UniProt Q9UGJ0); assay: AMPK activity in anti-FLAG immunoprecipitates, HepG2 cells with FLAG-tagged WT AMPK-γ2; format: cell-based; details: 1 h, 300 μM cordycepin, 10 mM phenformin or 300 μM A-769662
T1 construct: expressed in transfected cells; host or cells: HepG2 (transient, Fugene 6)
Experimental: HepG2 cells ([…]) were cultured in Minimum Essential Medium (MEM) supplemented with 10% (v/v) FBS, 1% (v/v) non-essential amino acids and 1% (v/v) penicillin/streptomycin. Transient transfection of DNAs encoding FLAG-tagged AMPK-γ2 or an R531G mutant of AMPK-γ2 were carried out 36-48 hr prior to experiments using Fugene 6 according to manufacturers’ instructions. U2OS cells ([…]) were cultured in Dulbecco’s Modified Eagle’s Medium (DMEM) supplemented with 10% (v/v) FBS and 1% (v/v) penicillin/streptomycin.
HepG2 cells were transiently transfected with DNAs encoding FLAG-tagged wild type AMPK-γ2 or the R531G mutant, using Fugene 6 according to the manufacturers’ instructions. After transfection for 48 hr, cells were treated with various agents as described, and cell lysates prepared ([Hawley et al., 2018]). FLAG-tagged AMPK was then immunoprecipitated from 150 μg total protein by incubation at 4°C for 2 hr on a roller mixer with 9 μl of EZview Red anti-FLAG M2 affinity gel. After extensive washing, the immunoprecipitates were assayed for AMPK activity (50 μg per assay in a total volume of 50 μl) using the AMARA peptide (200 μM) as substrate in the presence of 200 μM AMP, 5 mM MgCl2 and 200 μM γ-^32P-ATP as described previously ([Fyffe et al., 2018]).

T1 sequence (Q9UGJ0 whole entry, one chain of several): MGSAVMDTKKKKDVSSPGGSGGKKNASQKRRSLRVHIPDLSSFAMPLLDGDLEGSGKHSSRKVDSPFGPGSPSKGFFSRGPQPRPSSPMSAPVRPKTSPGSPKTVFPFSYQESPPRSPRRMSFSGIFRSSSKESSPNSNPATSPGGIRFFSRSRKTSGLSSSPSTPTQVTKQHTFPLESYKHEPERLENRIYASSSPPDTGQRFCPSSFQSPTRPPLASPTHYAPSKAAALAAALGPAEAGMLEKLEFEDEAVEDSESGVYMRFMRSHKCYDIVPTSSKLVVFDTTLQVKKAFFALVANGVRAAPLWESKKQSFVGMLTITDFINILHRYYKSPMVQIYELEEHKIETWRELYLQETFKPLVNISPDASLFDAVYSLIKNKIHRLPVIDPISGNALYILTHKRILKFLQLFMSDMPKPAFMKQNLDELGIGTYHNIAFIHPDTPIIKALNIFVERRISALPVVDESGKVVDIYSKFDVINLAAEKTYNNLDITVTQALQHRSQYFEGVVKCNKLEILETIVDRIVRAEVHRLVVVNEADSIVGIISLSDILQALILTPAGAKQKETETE

Nc1ncnc2c1ncn2[C@@H]1O[C@H](CO)C[C@H]1O [cordycepin, 3′-deoxyadenosine]
EC50 [1]: 81 ± 4 µM | decline of cordycepin in the medium (HepG2 cells [2]; by 2 h): 70% | cordycepin remaining in the medium (HepG2 cells [2]; by 4 h): almost disappeared | half-life at 100 μM [3]: ~1.33 h | effect on basal oxygen uptake (HepG2 cells [4]; 30 μM to 1 mM): only minor effects | inhibition of basal oxygen uptake (HepG2 cells [4]; 300 μM after 45 min and 1 mM after 30 and 45 min): modest inhibition | effect on maximal oxygen uptake (HepG2 cells [4]; after addition of the uncoupler 2,4-dinitrophenol): no significant effects | effect on residual oxygen uptake (HepG2 cells [4]; after subsequent addition of rotenone and antimycin A): no significant effects | AMPK activation and CoMP formation (HepG2 cells [5]; 30 μM cordycepin or below): neither AMPK activation nor CoMP formation was observed | decrease in cellular ADP content (HepG2 cells [5]; 1 mM cordycepin): 14 fold | decrease in cellular AMP content (HepG2 cells [5]; 1 mM cordycepin): 5 fold | drop in cellular ATP content (HepG2 cells [5]; 1 mM cordycepin): 100 fold | activation of AMPK complexes containing WT γ2 [6]: activated
